Consider ten molecules from PMC9782603 (Viruses, 2022).

Usually EC50 stands for the concentration needed to bring the measured effect to its halfway point. What is called CC50 is the concentration at which the toxic effect on the cells reaches its halfway point. A high value points to lower toxicity to the cells. In general, solubility refers to the concentration that dissolves in the medium under given conditions. The low end stands for a poorly soluble substance, the high end for a readily soluble substance. Usually melting point stands for the temperature, or range, at which the solid turns liquid. One may read the IC50 as the concentration at which inhibition is half-maximal.

For data set [1], the system named is HCV GT 1b subgenomic reporter replicon (strain Con1). Put plainly: HCV GT 1b subgenomic replicon luciferase antiviral assay in Huh5-2 cells. It is filed as cell-based. The conditions noted are these: Huh5-2, GT 1b (Con1), F-Luc, 3 days, read-out: EC50 HCV Replicon 1b. Background: In antiviral work, replicon cells carry a viral genome segment that copies itself.

Data set [2] relates to HCV GT 3a (strain S52) replicon. Put plainly: HCV GT 3a subgenomic replicon luciferase antiviral assay in Huh7.5-3a cells. It is filed as cell-based. The settings on record: Hepatitis C virus, GT3A, 72 h; Huh7.5-3a, GT 3a (S52), F-Luc, 3 days; read-out: EC50 HCV Replicon 3a.
The subject of data set [3] is HCV GT 4a (strain ED43) replicon. Put plainly: HCV GT 4a subgenomic replicon luciferase antiviral assay in Huh7.5-4a cells. It is filed as cell-based. The settings on record: Hepatitis C virus, GT4A, 72 h; Huh7.5-4a, GT 4a (ED43), F-Luc, 3 days; read-out: EC50 HCV Replicon 4a.
Data set [4] is described as follows: alamarBlue reduction cytotoxicity assay in replicon cells. The settings on record: human, HCV Replicon 1b cells. It is filed as cell-based. A general note: Resazurin is reduced to fluorescent resorufin, in cell work by metabolically active cells.
Data set [5] relates to HCV GT-1b RNA (Con1 replicon). Put plainly: Viral RNA quantification by RT-qPCR in Huh5-2 replicon cells. It is filed as cell-based. The conditions noted are these: (+) strand HCV RNA by RT-qPCR, Huh5-2 cells, normalized to YWHAZ.
For a further data set, the system named is HCV GT 1b (Con1). Put plainly: Drug combination of 11a with daclatasvir in Huh5-2 replicon cells. It is filed as cell-based.
Data set [6] in a line: Water solubility by HPLC-UV after 24 h agitation. The conditions noted are these: thermodynamic from solid, deionized water, ambient temperature. It is filed as physicochemical.
A further data set concerns HCV GT 2a. Put plainly: Activity against HCV GT 2a (data not shown). It is filed as cell-based.
In another data set the test system is NS5B. The settings on record: cited from earlier work.
The subject of data set [7] is HCV GT-1b replicon containing Huh-7 cells. The arrangement: method as in earlier work. The settings on record: cited from earlier work.
For a further data set, the system named is HCV GT-1b replicon. The conditions noted are these: HCV GT-1b replicon luciferase reporter assay (n ≥ 2); cited from earlier work.
Setting [8] is: Hepatitis C virus, GT1B, Huh-5-2, 72 h.
Setting [9] is: reported NS5B TP-2 inhibitors, Figure 1.

Values after ≈ are worked out from the molar mass of the structure shown. Read-outs that look alike come from different tables or passages of the source.

Consider `Cc1ccc(OCC(=O)Nc2ccc3c(c2)c(=O)nc(C)n3-c2ccccc2)cc1` [11a, N-(2-Methyl-4-oxo-1-phenyl-1,4-dihydroquinazolin-6-yl)-2-(p-tolyloxy)acetamide], for which the melting point is 268 °C. Besides, in [1] (setting [8]), the EC50 came to 984 nM. In addition, the EC50 in data set [1] stood at 980 ± 60 nM. Also, the EC50 in data set [2] was above 10000 nM. Further, in data set [3], the half-maximal effective concentration (EC50) is above 10000 nM. The molecule further gave a cytotoxic concentration (CC50) at 3 days in [4] of 157500 ± 30 nM. The EC50 in data set [5] was found to be 1130 nM. In addition, the “Combinatory effect with daclatasvir” value in the data set with HCV GT 1b (Con1) (11a in combination with DCV, Huh5-2, in words) is “additive effect”. For the same molecule, in the data set with HCV GT 1b (Con1) (11a with daclatasvir (DCV), Huh5-2), the “CDI (coefficient of drug interaction)” value is reported as “≈ 1”. Moreover, in the data set on HCV GT 1b (Con1) (DCV 30 pM + 11a 0.1 μM, Huh5-2), the CDI is reported as 0.949. Also, the CDI in the data set with HCV GT 1b (Con1) (DCV 30 pM + 11a 1 μM, Huh5-2) is given as 0.995. The amount in solution in [6] (solubility at 24 h) came to 2.7 µg/mL (≈ 6.76 µM).

The molecule `Cc1nc(=O)c2cc(NC(=O)COc3ccc(Cl)cc3)ccc2n1-c1ccccc1` [11b, 2-(4-Chlorophenoxy)-N-(2-methyl-4-oxo-1-phenyl-1,4-dihydroquinazolin-6-yl)acetamide] had a melting point of 254 °C. For the same molecule, the EC50 in [1] (setting [8]) worked out at 1380 ± 40 nM. The EC50 in [2] came out at 11600 ± 1260 nM. Also, the EC50 in [3] was above 10000 nM. Also, in [4], the CC50 at 3 days is 99010 ± 90 nM. The molecule further displayed a solubility at 24 h in [6] of 3.5 µg/mL (≈ 8.34 µM). For the same molecule, in the data set with HCV GT 2a, the “activity against GT 2a” value is reported as “no activity”.

With `Cc1cccc(-n2c(C)nc(=O)c3cc(NC(=O)COc4ccc(Cl)cc4)ccc32)c1` [11e, 2-(4-Chlorophenoxy)-N-(2-methyl-4-oxo-1-(m-tolyl)-1,4-dihydroquinazolin-6-yl)acetamide], the melting point came out at 283 °C. Moreover, in data set [1] (setting [8]), the half-maximal effective concentration (EC50) was 6240 ± 40 nM. Besides, the half-maximal effective concentration (EC50) in data set [2] was found to be 8400 ± 150 nM. In addition, in data set [3], the EC50 was found to be 15200 ± 290 nM. For the same molecule, the CC50 at 3 days in data set [4] stood at 36600 ± 4190 nM. The “activity against GT 2a” value in the data set with HCV GT 2a is recorded as “no activity”.

With `CCc1ccc(/C=C2\SC(N[C@H](C(=O)O)c3ccc(F)cc3)=NC2=O)o1` [III], the IC50 with NS5B (enzymatic assays) is 3000 nM.

For the molecule `CC1CCC(C(=O)N(c2cc(C#CC(C)(C)C)sc2C(=O)O)C(C)C)CC1` (centres unmarked) [II], the EC50 in data set [7] was 26 nM. Further, in the data set with NS5B (setting [9]), the 50% inhibitory concentration (IC50) was 86 nM.

As to `CC1CCC(C(=O)N(c2cc(-c3ccccc3)sc2C(=O)O)C(C)C)CC1` (centres unmarked) [IV], in the data set with NS5B (setting [9]), the 50% inhibitory concentration (IC50) is 28 nM.

As for `Cc1ccc(S(=O)(=O)Nc2cc(-c3ccc(F)cc3)sc2C(=O)O)cc1` [I], the IC50 in the data set on NS5B (setting [9]) is 290 nM.

As for `O=c1ncn(Cc2c(F)cc(F)cc2F)c2ccc(Oc3cccc(-c4ccccn4)c3C(F)(F)F)cc12` [VIII], the 50% effective concentration (EC50) in the data set with HCV GT-1b replicon is 310 nM.

Take `CC1CCC(C(=O)N(c2ccc(Oc3ncccc3C(F)(F)F)cc2C(=O)O)C(C)C)CC1` (centres unmarked) [VI]: the half-maximal effective concentration (EC50) in the data set on HCV GT-1b replicon is 95 nM. Also, the IC50 with NS5B (setting [9]) was 80 nM.

For `Cc1ccc(S(=O)(=O)Nc2ccc(Oc3ccccc3)cc2C(=O)O)cc1` [V], the half-maximal effective concentration (EC50) in the data set on HCV GT-1b replicon was above 30000 nM. In addition, the half-inhibitory concentration (IC50) in the data set with NS5B (setting [9]) is 220 nM.
